Columns and labels:
wild-type TRPM8 = target: T1, wild-type TRPM8 (Mus musculus, UniProt Q8R4D5); assay: open probability from noise analysis of macroscopic current and single-channel recordings; assay type: cell-based
T1 construct: expressed in transfected cells; host or cells: HEK293T
Method: (§1) Patch-clamp recordings were performed with a HEKA EPC10 amplifier controlled by PatchMaster software (HEKA). Whole-cell recordings were performed at ±80 mV. Patch pipettes were prepared from borosilicate glass and fire-polished to resistance of ~4 MΩ. For whole-cell recording, serial resistance was compensated by 60%. For single-channel recordings, patch pipettes were fire-polished to a higher resistance of 6-to-10 MΩ and then recorded in the inside-out configuration. To maximize the chance of obtaining a patch with only one channel, single-channel recordings were performed about 8 h after transfection. A solution with 130 mM NaCl, 10 mM glucose, 0.2 mM EDTA, and 3 mM HEPES (pH 7.2) was used in both bath and pipette for either whole-cell or single-channel recordings. Membrane potential was clamped at +80 mV for single-channel recordings. Current was sampled at 10 kHz and filtered at 2.9 kHz. All recordings were performed at room temperature (22 °C) with the maximum variation of 1 °C.
From single-channel recordings, the open probability (Po) was calculated after events detection with a hidden Markov approach in the software QuB[49] (http://www.qub.buffalo.edu/). A dead time of 0.32 ms was imposed. As a complementary approach, Po was also estimated from noise analysis[52] of whole-cell recordings. Briefly, the mean current amplitude (I), the squared deviations in current amplitude from the mean value (σ^2), and the single-channel current (i) were measured experimentally from a membrane patch of ion channels. Then the number of ion channels clamped in that patch (N) was determined as3 N=I^2/i⋅I−σ^2.
The maximum current when each of ion channel is at the open state with a Po of 1 is equal to i × N. Then the open probability was calculated as the ratio between the measured macroscopic current and the maximum current calculated by noise analysis. To estimate channel conductance, current amplitude was estimated from all-point histogram of single-channel recordings.

[1] = target: T2, TRPM8 point mutants at sites 840, 910, 916, 972 (Mus musculus, UniProt Q8R4D5); assay: Φ analysis based on single-channel recordings; assay type: cell-based
T2 construct: expressed in transfected cells; host or cells: HEK293T
Method: as §1
(§2) We followed the principle of Φ-analysis described in published literatures in detail[17],[36],[48]. […] At such a high concentration, only the patches showing the activities of one channel was used for analysis. Single-channel data were processed by the QuB software[49] version 1.4 (ref. [50]). Opening and closing events were detected during idealization with the half amplitude method. Using the simple close ↔ open model (Fig. 6a), the forward and backward rates were determined with a deadtime of 0.3-to-0.4 ms. The equilibrium constant was calculated as the ratio of forward and backward rates. Opening rates and equilibrium constants for each mutant at the same residue site were plotted in log scale (Brønsted plot) before fitting with a linear function to determine the Φ value.

[2] = target: T3, TRPM8 point mutants at sites 840, 910, 916, 972 (Mus musculus, UniProt Q8R4D5, P916F); assay: Φ analysis based on single-channel recordings; assay type: cell-based; settings: TRPM8 916F, mean of single-channel recordings
T3 construct: expressed in transfected cells; host or cells: HEK293T
Method: as §1, §2

[3] = target: T4, TRPM8 point mutants at sites 840, 910, 916, 972 (Mus musculus, UniProt Q8R4D5, A910I); assay: Φ analysis based on single-channel recordings; assay type: cell-based; settings: TRPM8 910I, mean of single-channel recordings (1mM)
T4 construct: expressed in transfected cells; host or cells: HEK293T
Method: as §1, §2

[4] = target: T5, TRPM8 point mutants at sites 840, 910, 916, 972 (Mus musculus, UniProt Q8R4D5, T840D); assay: Φ analysis based on single-channel recordings; assay type: cell-based; settings: TRPM8 840D, mean of single-channel recordings (500um, 1mM)
T5 construct: expressed in transfected cells; host or cells: HEK293T
Method: as §1, §2

[5] = target: T6, TRPM8 point mutants at sites 840, 910, 916, 972 (Mus musculus, UniProt Q8R4D5, A910G); assay: Φ analysis based on single-channel recordings; assay type: cell-based; settings: TRPM8 910G, mean of single-channel recordings (200u, 500u, 1mM)
T6 construct: expressed in transfected cells; host or cells: HEK293T
Method: as §1, §2

[6] = target: T7, TRPM8 point mutants at sites 840, 910, 916, 972 (Mus musculus, UniProt Q8R4D5, A910V); assay: Φ analysis based on single-channel recordings; assay type: cell-based; settings: TRPM8 910V, mean of single-channel recordings (1mM, 500um)
T7 construct: expressed in transfected cells; host or cells: HEK293T
Method: as §1, §2

[7] = tested on: TRPM8 point mutants at sites 840, 910, 916, 972; assay: Φ analysis based on single-channel recordings; assay type: cell-based, mouse; settings: for Φ value: 5 mM menthol, single-channel, +80 mV
Method: as §1, §2

[8] = target: T8, TRPM8 point mutants at sites 840, 910, 916, 972 (Mus musculus, UniProt Q8R4D5, T840N); assay: Φ analysis based on single-channel recordings; assay type: cell-based; settings: TRPM8 840N, mean of single-channel recordings (1mM, 5mM)
T8 construct: expressed in transfected cells; host or cells: HEK293T
Method: as §1, §2

[9] = target: T9, TRPM8 point mutants at sites 840, 910, 916, 972 (Mus musculus, UniProt Q8R4D5, V972I); assay: Φ analysis based on single-channel recordings; assay type: cell-based; settings: TRPM8 972I, mean of single-channel recordings
T9 construct: expressed in transfected cells; host or cells: HEK293T
Method: as §1, §2

[10] = TRPM8 840T (recordings 1S-AF/2S-AF, 500um, 1mM)
[11] = TRPM8 910A (recordings 1S-AF/2S-AF, 500um, 1mM)
[12] = TRPM8 916P (recordings 1S-AF/2S-AF, 500um, 1mM)
[13] = TRPM8 972V (recordings 1S-AF/2S-AF, 500um, 1mM)
[14] = TRPM8 840A, mean of single-channel recordings (500um)
[15] = TRPM8 910T, mean of single-channel recordings (1mM, 5mM)
[16] = TRPM8 972L, mean of single-channel recordings

T2 sequence (Q8R4D5 whole entry, change not shown): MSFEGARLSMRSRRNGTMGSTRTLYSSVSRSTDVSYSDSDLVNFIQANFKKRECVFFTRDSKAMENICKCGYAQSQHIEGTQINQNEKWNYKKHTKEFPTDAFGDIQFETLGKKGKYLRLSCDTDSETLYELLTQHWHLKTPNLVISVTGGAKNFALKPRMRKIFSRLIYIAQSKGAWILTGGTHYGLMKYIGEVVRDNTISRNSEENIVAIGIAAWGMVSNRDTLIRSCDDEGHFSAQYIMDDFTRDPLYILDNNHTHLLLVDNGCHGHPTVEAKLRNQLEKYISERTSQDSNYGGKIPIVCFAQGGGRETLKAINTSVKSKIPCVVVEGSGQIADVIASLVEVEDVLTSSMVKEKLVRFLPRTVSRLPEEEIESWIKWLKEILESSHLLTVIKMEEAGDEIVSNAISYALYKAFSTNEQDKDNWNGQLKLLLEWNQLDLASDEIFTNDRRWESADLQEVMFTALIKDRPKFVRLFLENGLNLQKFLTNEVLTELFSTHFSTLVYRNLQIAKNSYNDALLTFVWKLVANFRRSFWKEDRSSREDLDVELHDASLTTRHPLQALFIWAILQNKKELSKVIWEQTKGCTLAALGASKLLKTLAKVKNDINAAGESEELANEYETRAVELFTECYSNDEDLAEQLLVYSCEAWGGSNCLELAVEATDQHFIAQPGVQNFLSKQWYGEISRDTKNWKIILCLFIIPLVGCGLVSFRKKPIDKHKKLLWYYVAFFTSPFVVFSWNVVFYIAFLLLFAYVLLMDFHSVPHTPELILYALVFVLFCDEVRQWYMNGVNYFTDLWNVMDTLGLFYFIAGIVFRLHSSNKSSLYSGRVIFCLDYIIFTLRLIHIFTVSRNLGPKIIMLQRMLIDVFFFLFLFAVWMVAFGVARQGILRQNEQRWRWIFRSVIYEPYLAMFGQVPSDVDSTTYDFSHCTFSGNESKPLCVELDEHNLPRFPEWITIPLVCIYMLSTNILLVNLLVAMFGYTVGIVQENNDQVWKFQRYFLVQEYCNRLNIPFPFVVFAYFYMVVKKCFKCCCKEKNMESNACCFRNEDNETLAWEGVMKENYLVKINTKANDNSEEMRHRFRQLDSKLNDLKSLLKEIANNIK
T3 sequence (Q8R4D5 whole entry P916F): as the sequence (Q8R4D5 whole entry, change not shown) above, with P916F counted along it
T1 sequence (Q8R4D5 whole entry): as the sequence (Q8R4D5 whole entry, change not shown) above
T8 sequence (Q8R4D5 whole entry T840N): as the sequence (Q8R4D5 whole entry, change not shown) above, with T840N counted along it
T7 sequence (Q8R4D5 whole entry A910V): as the sequence (Q8R4D5 whole entry, change not shown) above, with A910V counted along it
T6 sequence (Q8R4D5 whole entry A910G): as the sequence (Q8R4D5 whole entry, change not shown) above, with A910G counted along it
T4 sequence (Q8R4D5 whole entry A910I): as the sequence (Q8R4D5 whole entry, change not shown) above, with A910I counted along it
T5 sequence (Q8R4D5 whole entry T840D): as the sequence (Q8R4D5 whole entry, change not shown) above, with T840D counted along it
T9 sequence (Q8R4D5 whole entry V972I): as the sequence (Q8R4D5 whole entry, change not shown) above, with V972I counted along it

With `CC(C)[C@@H]1CC[C@@H](C)C[C@H]1O` [menthol, (−)-menthol] the agonist nature (wild-type TRPM8; noise analysis of macroscopic current, confirmed in single-channel recordings) was “partial agonist”, the “maximum open probability (Po max)” value (wild-type TRPM8; wild-type TRPM8, near saturating concentration (menthol 500 µM)) was 0.81 ± 0.03 and the logKeqave [1, 10] was -0.1349. The “ratesave (mean log forward rates)” value [1, 10] was 2.916, the logKeqave [1, 11] was -0.1349 and the “ratesave (mean log forward rates)” value [1, 11] was 2.916. It also gave a logKeqave [1, 12] of -0.1349, a logratesave [1, 12] of 2.916 and a logKeqave [1, 13] of -0.1349. The logratesave [1, 13] was 2.916, the logKeqave [2] was 0.4532 and the logratesave [2] was 3.166. The logKeqave [3] was -1.154, the “ratesave (mean log forward rates)” value [3] was 2.135 and the logKeqave [4] was 0.4314. For the same molecule, the “ratesave (mean log forward rates)” value [4] was 3.1375, the logKeqave [5] was -0.02911 and the “ratesave (mean log forward rates)” value [5] was 2.893. The logKeqave [6] was 0.7613, the “ratesave (mean log forward rates)” value [6] was 3.348 and the logKeqave [7, 14] was -0.9923. The “ratesave (mean log forward rates)” value [7, 14] was 2.126, the logKeqave [7, 15] was 0.1885 and the “ratesave (mean log forward rates)” value [7, 15] was 3.0067. The logKeqave [7, 16] was 0.4054, the logratesave [7, 16] was 3.126 and the “phi from single-channel recording” value ([7]; site 840) was 0.7339. For the same molecule, the Φ value ([7]; site 840) was 0.73, the “phi from single-channel recording” value ([7]; site 910) was 0.6331 and the Φ value ([7]; site 910) was 0.63. The “phi from single-channel recording” value ([7]; site 916) was 0.4253, the Φ value ([7]; site 916) was 0.42 and the “phi from single-channel recording” value ([7]; site 972) was 0.711. The Φ value ([7]; site 972) was 0.71, the logKeqave [8] was 0.1255 and the “ratesave (mean log forward rates)” value [8] was 3.014. The logKeqave [9] was -0.5254.

— article PMC7391767, “Molecular mechanisms underlying menthol binding and activation of TRPM8 ion channel” (Nature Communications, 2020)
